Assay results reported in patent publication US20140107054A1, “Method of treating clostridium difficile-associated diarrhea” (priority 2006, published 2014).
Values after ≈ are worked out from the molar mass of the structure shown. Values joined by “and” are separate entries in the source; they are usually repeats but may differ in a detail not shown here. Equal entries are not always repeated.

Assays:
[1] = tested on: Eubacterium lentum (43055); assay: MIC, CLSI agar dilution, different lots of media (QC organism); format: cell-based; details: Eggerthella lenta
From the text: (§1) Laboratory strains of Clostridium difficile 9689, 700057, 43255, 17857 and Eubacterium lentum 43055 were obtained from American Type Culture Collection (ATCC). […] Broth dilution is not a validated method for MIC testing of Clostridium; however, due to potential inaccuracy of measuring the pH of solid agar after equilibration inside the anaerobic chamber, both methods were used and compared for the assessment of pH effects.

C. difficile (43255) = assay: MIC, CLSI agar dilution, different lots of media; format: cell-based, Clostridium difficile; details: for MIC: Clostridioides difficile
From the text: as §1

C. difficile (17857) = assay: MIC, CLSI agar dilution, different lots of media; format: cell-based, Clostridium difficile; details: Clostridioides difficile
From the text: as §1

C. difficile ATCC 9689 [2] = assay: MIC, CLSI agar dilution; format: cell-based, Clostridium difficile; details: for MIC: Clostridioides difficile, different lots of media
From the text: (§2) Laboratory strains of Clostridium difficile 9689, 700057, 43255, 17857 and Eubacterium lentum 43055 were obtained from American Type Culture Collection (ATCC). […] Broth dilution is not a validated method for MIC testing of Clostridium; however, due to potential inaccuracy of measuring the pH of solid agar after equilibration inside the anaerobic chamber, both methods were used and compared for the assessment of pH effects. […] Even with strong buffering, the pH shifted slightly following equilibration in the anaerobic gas, and thus in some cases media was titered in ambient air to above the desired anaerobic pH. The actual pH was always confirmed following equilibration inside the anaerobic chamber. […] The level of divalent cations in the Brucella broth as acquired from the manufacturer were determined by the Laboratory Specialists, Inc.

C. difficile strains [3] = assay: MIC, agar dilution, statements for C. difficile strains together; format: cell-based, Clostridium difficile
From the text: as §2

[4] = Fold increase in MIC relative to tiacumicin B (API mixture profile table); format: cell-based
C. difficile ATCC 9689 [5] = assay: MIC, broth microdilution (pH effect); format: cell-based, Clostridium difficile; details: in µg/mL
C. difficile = assay: Quantitative stool cultures of Phase 2A patients, C. difficile counts; format: in vivo, human; details: all patients except one receiving 50 mg; 50, 100 or 200 mg twice daily for 10 days (vancomycin 125 mg qid)
Bacteroides group = assay: Quantitative stool cultures of Phase 2A patients, Bacteroides group counts; format: in vivo, human
C. difficile strains [6] = assay: MIC, broth microdilution, statements for both C. difficile strains; format: cell-based, Clostridium difficile; details: all three experiments
C. difficile ATCC 700057 [7] = assay: MIC, broth microdilution (pH effect); format: cell-based, Clostridium difficile; details: in µg/mL
C. difficile ATCC 700057 [8] = assay: MIC, CLSI agar dilution; format: cell-based, Clostridium difficile
From the text: as §2

[9] = anaerobic pH 6.7, 10 mM NaH2PO4 pH 7.0 (air)
[10] = anaerobic pH 6.8, 100 mM NaH2PO4 pH 7.0 (Air)
[11] = anaerobic pH 7.2, 10 mM MOPS pH 8.0 (Air)
[12] = anaerobic pH 7.5, 100 mM MOPS pH 8.0 (Air)
[13] = anaerobic pH 7.6, 10 mM TAPS pH 9.0 (Air)
[14] = anaerobic pH 8, 100 mM TAPS pH 9.0 (Air)
[15] = anaerobic pH 8.1, 100 mM TAPS pH 9.5 (Air)
[16] = strongly buffered series, anaerobic pH 6, pH 6.0 (Air)
[17] = unbuffered media, anaerobic pH 5.9
[18] = unbuffered media, anaerobic pH 6.6
[19] = unbuffered media, anaerobic pH 7.1
[20] = unbuffered media, anaerobic pH 7.5
[21] = weakly buffered series, anaerobic pH 6, pH 6.0 (Air)
[22] = anaerobic pH 7, 100 mM NaH2PO4, pH 7.2 (Air)

CCC[C@@H]1C[C@@H](C(=O)N[C@@H]([C@H]2O[C@H](SC)[C@H](O)[C@@H](O)[C@H]2O)[C@H](C)Cl)N(C)C1 [Clindamycin, clindamycin]
MIC ([1]; 24 h, Day 1): 0.25 µg/mL (≈ 0.588 µM)
MIC ([1]; 48 h, Day 2): 0.25 µg/mL (≈ 0.588 µM)
MIC ([1]; 72 h, Day 3): 0.125 µg/mL (≈ 0.294 µM)
MIC (C. difficile (43255); 24 h, Day 1): 8 µg/mL (≈ 18.8 µM)
MIC (C. difficile (43255); 48 h, Day 2): 4 µg/mL (≈ 9.41 µM)
MIC (C. difficile (43255); 72 h, Day 3): 8 µg/mL (≈ 18.8 µM)
MIC values (C. difficile (43255); Day 2): 8 µg/mL (≈ 18.8 µM)
MIC (C. difficile (17857); 24 h, Day 1): 4 µg/mL (≈ 9.41 µM)
MIC (C. difficile (17857); 48 h, Day 2): 2 µg/mL (≈ 4.71 µM)
MIC (C. difficile (17857); 72 h, Day 3): 4 µg/mL (≈ 9.41 µM)
MIC (C. difficile ATCC 9689 [2]; ATCC9689, 24 h, Day 1): 4 µg/mL (≈ 9.41 µM)
MIC (C. difficile ATCC 9689 [2]; ATCC9689, 48 h, Day 2): 4 µg/mL (≈ 9.41 µM)
MIC (C. difficile ATCC 9689 [2]; ATCC9689, 72 h, Day 3): 4 µg/mL (≈ 9.41 µM)

Cc1ncc([N+](=O)[O-])n1CCO [Metronidazole, metronidazole]
MIC values range in our laboratory (C. difficile strains [3]; control vs. C. difficile strains): 0.25 to 0.5 µg/mL
MIC ([1]; 24 h, Day 1): 1 µg/mL (≈ 5.84 µM)
MIC ([1]; 48 h, Day 2): 0.25 µg/mL (≈ 1.46 µM)
MIC ([1]; 72 h, Day 3): 1 µg/mL (≈ 5.84 µM)

CCc1c(Cl)c(O)c(Cl)c(O)c1C(=O)OC1C(C)OC(OC/C2=C\C=C\CC(O)/C(C)=C/C(CC)C(OC3OC(C)(C)C(OC(=O)C(C)C)C(O)C3O)/C(C)=C/C(C)=C/CC(C(C)=O)OC2=O)C(OC)C1O (centres unmarked) [OP-1402]
fold increased in MIC relative to tiacumicn B [4]: 2-4x

CCC1/C=C(\C)C(O)C/C=C/C=C(\COC2OC(C)C(OC(=O)c3c(C)c(Cl)c(O)c(Cl)c3O)C(O)C2OC)C(=O)CC(C(C)O)C/C=C(C)/C=C(\C)C1OC1OC(C)(C)C(OC(=O)C(C)C)C(O)C1O (centres unmarked) [OP-1405, lipiarmycin A4]
fold increased in MIC relative to tiacumicn B [4]: 1-4x

CCc1c(Cl)c(O)c(Cl)c(O)c1C(=O)OC1C(C)OC(OC/C2=C\C=C\CC(O)/C(C)=C/C(CC)C(OC3OC(C)(C)C(OC(C)=O)C(O)C3O)/C(C)=C/C(C)=C/CC(C(C)O)OC2=O)C(OC)C1O (centres unmarked) [OP-1416]
fold increased in MIC relative to tiacumicn B [4]: 2-4x

CCC(=O)OC1C(O)C(O)C(OC2/C(C)=C/C(C)=C/CC(C(C)O)OC(=O)/C(COC3OC(C)C(OC(=O)c4c(O)c(Cl)c(O)c(Cl)c4CC)C(O)C3OC)=C/C=C/CC(O)/C(C)=C/C2CC)OC1(C)C (centres unmarked) [OP-1417]
fold increased in MIC relative to tiacumicn B [4]: 2-4x

CCc1c(Cl)c(O)c(Cl)c(O)c1C(=O)OC1C(C)OC(OC/C2=C/C=C/CC(O)/C(C)=C/C(CC)C(OC3OC(C)(C)C(O)C(OC(=O)C(C)C)C3O)/C(C)=C/C(C)=C/CC(C(C)O)OC2=O)C(OC)C1O (centres unmarked) [OP-1431, tiacumicin F]
fold increased in MIC relative to tiacumicn B [4]: 8x

CCc1c(Cl)c(O)c(Cl)c(O)c1C(=O)OC1C(C)OC(OC/C2=C/C=C/CC(O)/C(C)=C/C(CC)C(OC3OC(C)(C)C(O)C(O)C3OC(=O)C(C)C)/C(C)=C/C(C)=C/CC(C(C)O)OC2=O)C(OC)C1O (centres unmarked) [OP-1432, tiacumicin C]
fold increased in MIC relative to tiacumicn B [4]: 8-16x

CCC1CC=C(C)C=C(C)C(OC2OC(C)(C)C(OC(C)=O)C(O)C2O)C(CC)C=C(C)C(O)CC=CC=C(C)C(=O)O1 (centres unmarked) [OP-1434, tiacumicin A]
fold increased in MIC relative to tiacumicn B [4]: >32x

CCc1c(Cl)c(O)c(Cl)c(O)c1C(=O)OC1C(C)OC(OC/C2=C\C=C\CC(O)/C(C)=C/C(CC)C(OC3OC(C)(C)C(OC(=O)CC(C)C)C(O)C3O)/C(C)=C/C(C)=C/CC(C(C)O)OC2=O)C(OC)C1O (centres unmarked) [OP-1437]
fold increased in MIC relative to tiacumicn B [4]: 2x

CCc1c(Cl)c(O)c(Cl)c(O)c1C(=O)O[C@H]1[C@H](O)[C@H](OC)[C@H](OC/C2=C\C=C\C[C@H](O)/C(C)=C/[C@H](CC)[C@@H](O[C@@H]3OC(C)(C)[C@@H](OC(=O)C(C)C)[C@H](O)[C@@H]3O)/C(C)=C/C(C)=C/C[C@@H](C(C)O)OC2=O)O[C@@H]1C (some centres unmarked) [OP-1441, tiacumicin B]
fold increased in MIC relative to tiacumicn B [4]: 1x

CN[C@H](CC(C)C)C(=O)N[C@H]1C(=O)N[C@@H](CC(N)=O)C(=O)N[C@H]2C(=O)N[C@H]3C(=O)N[C@H](C(=O)N[C@H](C(=O)O)c4cc(O)cc(O)c4-c4cc3ccc4O)[C@H](O)c3ccc(c(Cl)c3)Oc3cc2cc(c3O[C@@H]2O[C@H](CO)[C@@H](O)[C@H](O)[C@H]2O[C@H]2C[C@](C)(N)[C@H](O)[C@H](C)O2)Oc2ccc(cc2Cl)[C@H]1O [Vancomycin, vancomycin]
MIC (C. difficile ATCC 9689 [5]; [9]): 1
MIC (C. difficile ATCC 9689 [5]; [10]): 1 and 2
MIC (C. difficile ATCC 9689 [5]; [11]): 2
MIC (C. difficile ATCC 9689 [5]; [12]): 4
MIC (C. difficile ATCC 9689 [5]; [13]): 4
MIC (C. difficile ATCC 9689 [5]; [14]): >8
MIC (C. difficile ATCC 9689 [5]; [15]): >8
MIC (C. difficile ATCC 9689 [5]; [16]): 1 and 0.5
MIC (C. difficile ATCC 9689 [5]; [17]): 0.5 and 1
MIC (C. difficile ATCC 9689 [5]; [18]): 0.5 and 1
MIC (C. difficile ATCC 9689 [5]; [19]): 2
MIC (C. difficile ATCC 9689 [5]; [20]): 4
MIC (C. difficile ATCC 9689 [5]; [21]): 0.5
Effect of inoculum density on MIC (C. difficile strains [3]; 10^5-10^8 cfu/ml (10^2-10^5 CFU/spot), ATCC 9689 and ATCC 700057, highest over lowest inoculum density): fourfold increase in MIC
C. difficile quantitative counts at day 10 (C. difficile): similarly effective
Effect on Bacteroides counts during therapy (Bacteroides group; 125 mg qid for 10 days): severely impairs Bacteroides counts
Bacteroides group counts/gm feces wet weight, mean ± SD (Bacteroides group; Day 0, 125 mg qid (n = 7)): 7.39 ± 2.67 log10 CFU
MIC at highest pH treatment relative to lowest pH treatment (C. difficile strains [6]): 4-8 fold
MIC (C. difficile ATCC 700057 [7]; [9]): 1
MIC (C. difficile ATCC 700057 [7]; [10]): 2
MIC (C. difficile ATCC 700057 [7]; [11]): 2
MIC (C. difficile ATCC 700057 [7]; [12]): 4
MIC (C. difficile ATCC 700057 [7]; [13]): 4
MIC (C. difficile ATCC 700057 [7]; [14]): 8
MIC (C. difficile ATCC 700057 [7]; [15]): 8
MIC (C. difficile ATCC 700057 [7]; [16]): 1
MIC (C. difficile ATCC 700057 [7]; [17]): 0.5
MIC (C. difficile ATCC 700057 [7]; [18]): 1
MIC (C. difficile ATCC 700057 [7]; [19]): 1 and 2
MIC (C. difficile ATCC 700057 [7]; [20]): 2 and 4
MIC (C. difficile ATCC 700057 [7]; [21]): 0.5
In vitro activity (MIC) (C. difficile ATCC 700057 [8]; agar dilution, inoculum density 1.48 × 10^8 cfu/ml, 1.48 × 10^5): 2 µg/mL
agar dilution MIC (C. difficile ATCC 700057 [8]; [22]): 4
agar dilution MIC (C. difficile ATCC 700057 [8]; pH 6.7, unbuffered column): 2 (pH 6.7)
agar dilution MIC (C. difficile ATCC 9689 [2]; [22]): 4
agar dilution MIC (C. difficile ATCC 9689 [2]; pH 6.7, unbuffered column): 1 (pH 6.7)
